Data from PMC12752606, “METTL10‐Mediated PIAS3 Methylation Links Purine Metabolism to Gastric Cancer Progression” (Advanced Science, 2025).

Experiments:
[1] = system: MITF ubiquitination mediated by PIAS3 and METTL10; experiment: In vitro ubiquitination assay with purified Flag-MITF; assay type: biochemical; conditions: 20 µM
Description: For the in vitro Sumoylation assay, bacteria‐purified GST‐PIAS3 and HEK293T‐purified MITF were incubated with SAE1, UBC9 in reaction buffer according to the manufacturer's instructions at 37 °C for 2 h. For the in vitro ubiquitination assay, purified His‐METTL10, GST‐PIAS3, Flag‐MITF, SAE1, and UBC9 proteins were incubated with ubiquitin, UBE1, UBE2B, and RNF4 in reaction buffer according to the manufacturer's instructions at 37 °C for 2 h. All the samples were subjected to immunoprecipitation and subsequently boiled in SDS‐PAGE loading buffer for immunoblotting.

[2] = system: Flag-METTL10 protein in HEK293T cells; experiment: Cycloheximide chase assay of Flag-METTL10 stability; assay type: cell-based; conditions: 20 µM
[3] = Body weight and organ toxicity in treated tumor-bearing mice; assay type: in vivo; conditions: K19-C2mE and Cldn18-AT mice
Description: For the subcutaneous tumor model, 5 × 10⁶ MKN45 cells suspended in 100 µL of sterile PBS were injected subcutaneously into the flanks of BALB/c nude mice. When tumor volumes reached approximately 50 mm^3, mice were randomized into three groups (Vehicle control, LZQ‐02‐023‐01 at 20 mg/kg or 40 mg/kg, n = 10 per group). All treatments were administered via intraperitoneal injection once daily for 14 consecutive days. Tumor volumes were measured every 2 days using calipers and calculated using the formula: volume = [length × (width[2])]/2. Mice were sacrificed on day 24 for endpoint analyses. For genetically engineered mouse models (GEMMs), 25‐week‐old K19‐C2mE mice were randomized into Vehicle control (n = 8) and LZQ‐02‐023‐01 treatment (40 mg/kg, n = 8) groups. Both groups received daily intraperitoneal injections for 28 consecutive days. Similarly, 8‐week‐old Cldn18‐AT mice were induced with tamoxifen (100 mg/kg, T5648, Sigma) and, 2 weeks post‐induction, randomized into Vehicle (n = 6) and LZQ‐02‐023‐01 (40 mg/kg, n = 6) treatment groups. Treatments were administered daily via intraperitoneal injection for 28 days.

[4] = molecular target: T1, GFP-tagged METTL10 protein (Homo sapiens, UniProt Q5JPI9); experiment: Microscale thermophoresis (MST); assay type: binding; conditions: lysate of HEK293T cells expressing GFP-METTL10, read-out: Dissociation constant (KD)
T1 construct: host or cells: HEK293T
Description: Microscale thermophoresis (MST) assays were conducted following the protocol.^[ [49] ^] Briefly, HEK293T cells were transfected with either the pEGFP‐N1‐METTL10 plasmid or the control pEGFP‐N1‐Vector plasmid for 24 h. Subsequently, protein lysates were obtained through ultrasonic disruption at 4 °C. Aliquots of the lysate were then incubated with serially diluted ligands at 37 °C for 30 min. Fluorescence signals were measured, and dissociation constants (Kd) were determined using the NanoTemper Monolith Pico.

[5] = system: ATK orthotopic tumors; experiment: Orthotopic ATK cell gastric cancer allograft model with flow cytometry of tumor-infiltrating cells; assay type: in vivo, C57BL/6 mice
Description: Orthotopic gastric cancer models were established by surgically implanting 1 × 10⁶ METTL10‐overexpressing or vector control ATK cells into the gastric subserosal layer of C57BL/6 mice under aseptic conditions. Tumor tissues were harvested 20 days post‐implantation for subsequent analyses. In a separate cohort, mice bearing orthotopic tumors (1 × 10⁶ cells implanted) received subcutaneous administration of LZQ‐02‐023‐01 at a dose of 40 mg/kg/day, starting 7 days after tumor implantation. The treatment continued daily for 14 consecutive days. Tumor burden and therapeutic response were assessed at the end of the treatment period by excision and analysis of gastric tumors.
Tumor tissues were finely minced into approximately 1 mm^3 pieces and enzymatically digested in Hank's Balanced Salt Solution (HBSS) containing type IV collagenase (2357210, Gibco) at 37 °C for 1 h. The resulting cell suspensions were gently triturated and passed through an 80 µm cell strainer (22131209, Biosharp) to remove debris. Red blood cells were lysed using ACK lysis buffer (R1010, Solarbio) to yield a single‐cell suspension. Cells were subsequently stained with a cocktail of fluorochrome‐conjugated antibodies (1:200 dilution; details listed in Table S6, Supporting Information) and a fixable viability dye (1:200, 2365395, Invitrogen) for 30 min at 4 °C in the dark. After washing, the stained cells were analyzed using a Sony ID7000 spectral flow cytometer (Sony Biotechnology).
Paraffin sections were initially placed in an oven at 65 °C for 30 min to melt the paraffin. The slides were then immersed in two consecutive xylene baths for 10 min each to dewax the tissue, followed by hydration through a series of graded ethanol solutions. The sections were stained with hematoxylin for 10 min. After differentiation with 1% hydrochloric acid alcohol, the sections were blued with lithium carbonate and counterstained with eosin for 3 min. The slides were then dehydrated in graded ethanol and mounted with neutral resin. All pathological results were performed in a blinded manner by experienced gastrointestinal pathologists. For IHC staining, sections were processed in accordance with the manufacturer's protocol (MXB Biotechnologies). Briefly, antigen retrieval was conducted at 37 °C for 30 min, followed by blocking at room temperature for 10 min. The sections were subsequently incubated with the appropriate primary antibody overnight at 4 °C. The following day, biotin‐conjugated secondary antibodies were applied and incubated for 1 h, followed by streptavidin‐peroxidase incubation for 10 min. Diaminobenzidine (DAB) was employed as the chromogen for visualization, and hematoxylin was used for counterstaining. Imaging was performed using the Olympus VS200 microscope.

[6] = MKN45 xenograft, 20 or 40 mg/kg/day
[7] = 40 mg/kg/day for 14 days, flow cytometry

T1 sequence (Q5JPI9 1-291 isoform Q5JPI9-1): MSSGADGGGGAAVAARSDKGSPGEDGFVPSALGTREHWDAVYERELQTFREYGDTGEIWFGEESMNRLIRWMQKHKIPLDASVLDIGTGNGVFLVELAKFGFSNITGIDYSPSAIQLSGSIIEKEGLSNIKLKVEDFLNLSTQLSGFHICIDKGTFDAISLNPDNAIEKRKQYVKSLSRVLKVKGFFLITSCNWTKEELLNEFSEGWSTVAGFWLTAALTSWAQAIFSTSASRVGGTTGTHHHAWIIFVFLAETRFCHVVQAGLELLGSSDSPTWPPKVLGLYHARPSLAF

Cc1ccc(Nc2ncc3c(n2)N(C)C(=O)N(c2cccc(N)c2)C3)cn1 [LZQ-02-023-01, Three‐(3‐aminophenyl)‐1‐methyl‐7‐((6‐methylpyridin‐3‐yl)amino)‐3,4‐dihydropyrimido [4,5‐d] pyrimidin‐2 (1H)‐one]
PIAS3-mediated ubiquitination and degradation of MITF, cell-free system [1]: significantly promoted | Half-life of METTL10 protein [2]: remained unchanged | Spleen weight ([3]; 40 mg/kg/day): reduction | Body weight loss [3, 6]: did not cause substantial weight loss | Discernible toxic effects on other organs [3, 6]: did not cause | Kd [4]: 4.47 µM | Tumor burden ([5]; 40 mg/kg/day for 14 consecutive days, ATK orthotopic model, vs vehicle): significant reduction in tumor burden | Proliferative activity (Ki-67 expression) of tumors ([5]; 40 mg/kg/day for 14 days): reduced proliferative activity | Tumor-infiltrating B cells [5, 7]: modest decrease | Tumor-infiltrating T lymphocytes (CD4+ and CD8+) [5, 7]: moderate increase
